For this assay, the system named is MV4:11 human cancer cell lines. The assay is described as follows: Cellular viability / anti-proliferative activity (CellTiter-Glo). The class given is cell-based. The note with it: MV4-11, 120 h, MV-4-11 cells, 5 day protocol, mean of minimum two replicates, read-out: GI50 on cellular proliferation of MV4:11 human cancer cell lines. Here is the method:
Cellular Viability of Human Tumor Cell Lines
Anti-Proliferative Activity Using MLL-Harboring Cell Lines.
MV-4-11 and K562 cells are grown in IMDM media supplemented with 10% FBS and […], Molm-13 cells are cultured in RPMI-1640 media supplemented with 10% FBS and 1% o penicillin/streptomycin. Viability assays are performed by dispensing 200 cells at 7200 cells/mL into each well of an opaque 384-well plate and adding compounds at the indicated concentrations in a final volume of 32 μL and a final concentration of DMSO of 0.3% for all samples. A certain range of compound concentrations is made through a series of 2-fold dilutions starting 30 μM at the highest, total 22 dilutions. After a set incubation period, 5 day protocol, the viability of cells in each well is assessed using the CellTiter-Glo assay (Promega), read on a 96 Microplane Luminometer (Cytation 3, BioTek). Serial dilutions of each cell type are performed in all assays to generate standard curves and the final densities of cells are determined within the dynamic range of the instrument. GI50 values are calculated based on XLfit software (IDBS, Guildford, UK) with Sigmoidal Dose-Response Model. Each compound is tested in minimum of two replicates. Data are expressed as mean.

Results on 23 molecules are retold here after patent publication US12577227B2, “WDR5 inhibitors and modulators” (Vanderbilt University, priority 2019, dated 2026).

In the case of `CCc1cc(C(=O)NC)c2nccc(N3CCOc4c(cc(Cn5ccnc5)cc4-c4cn(C)nc4C(F)(F)F)C3=O)c2c1` [Example 72, 4-(7-((1H-imidazol-1-yl)methyl)-9-(1-methyl-3-(trifluoromethyl)-1H-pyrazol-4-yl)-5-oxo-2,3-dihydrobenzo[f][1,4]oxazepin-4(5H)-yl)-6-ethyl-N-methylquinoline-8-carboxamide], the GI50 is 494 nM.
In the case of `Cc1cc(C)nc(CN2CCOc3c(cc(Cn4ccnc4C)cc3-c3sc(C)nc3C)C2=O)c1` [Example 43, 4-((4,6-Dimethylpyridin-2-yl)methyl)-9-(2,4-dimethylthiazol-5-yl)-7-((2-methyl-1H-imidazol-1-yl)methyl)-3,4-dihydrobenzo[f][1,4]oxazepin-5(2H)-one] it was 159 nM; in that of `COc1cc(CN2CCOc3c(cc(CNc4nocc4C)cc3-c3ccc(F)cc3C)C2=O)cc(OC)c1` [Example 7, 4-(3,5-Dimethoxybenzyl)-9-(4-fluoro-2-methylphenyl)-7-(((4-methylisoxazol-3-yl)amino)methyl)-3,4-dihydrobenzo[f][1,4]oxazepin-5(2H)-one], over 940 nM.
On to `Cc1ccnc(CN2CCOc3c(cc(Cn4ccnc4C)cc3-c3cn(C)nc3C(F)(F)F)C2=O)c1` [Example 27, 7-((2-Methyl-1H-imidazol-1-yl)methyl)-9-(1-methyl-3-(trifluoromethyl)-1H-pyrazol-4-yl)-4-((4-methylpyridin-2-yl)methyl)-3,4-dihydrobenzo[f][1,4]oxazepin-5(2H)-one], for which the GI50 worked out at 192 nM.
Turning to `CCc1cc(C(=O)NCCOC)c2nccc(N3CCOc4c(cc(Cn5ccnc5)cc4-c4cn(C)nc4C(F)(F)F)C3=O)c2c1` [Example 74, 4-(7-((1H-imidazol-1-yl)methyl)-9-(1-methyl-3-(trifluoromethyl)-1H-pyrazol-4-yl)-5-oxo-2,3-dihydrobenzo[f][1,4]oxazepin-4(5H)-yl)-6-ethyl-N-(2-methoxyethyl)quinoline-8-carboxamide], the GI50 worked out at 458 nM.
As for `CCc1nccn1Cc1cc2c(c(-c3cn(C)nc3C(F)(F)F)c1)OCCN(Cc1cc(C)cc(C)n1)C2=O` [Example 38, 4-((4,6-Dimethylpyridin-2-yl)methyl)-7-((2-ethyl-1H-imidazol-1-yl)methyl)-9-(1-methyl-3-(trifluoromethyl)-1H-pyrazol-4-yl)-3,4-dihydrobenzo[f][1,4]oxazepin-5(2H)-one], the figure is 262 nM; as for `COc1cc(CN2CCOc3c(cc(Cn4cnn(C)c4=N)cc3-c3cn(C)nc3C(F)(F)F)C2=O)cc(OC)c1` [Example 15, 4-(3,5-Dimethoxybenzyl)-7-((5-imino-1-methyl-1,5-dihydro-4H-1,2,4-triazol-4-yl)methyl)-9-(1-methyl-3-(trifluoromethyl)-1H-pyrazol-4-yl)-3,4-dihydrobenzo[f][1,4]oxazepin-5(2H)-one], 101 nM.
As for `CCOC(=O)c1cc(CC)cc2c(N3CCOc4c(cc(Cn5ccnc5)cc4-c4cn(C)nc4C(F)(F)F)C3=O)ccnc12` [Example 66, Ethyl 4-(7-((1H-imidazol-1-yl)methyl)-9-(1-methyl-3-(trifluoromethyl)-1H-pyrazol-4-yl)-5-oxo-2,3-dihydrobenzo[f][1,4]oxazepin-4(5H)-yl)-6-ethylquinoline-8-carboxylate], the figure is 772 nM; as for `COc1cc(CN2C[C@@H](C)Oc3c(cc(Cn4ccn(C)c4=N)cc3-c3ccc(F)cc3C)C2=O)cc(OC)c1` [Example 33, (R)-4-(3,5-dimethoxybenzyl)-9-(4-fluoro-2-methylphenyl)-7-((2-imino-3-methyl-2,3-dihydro-1H-imidazol-1-yl)methyl)-2-methyl-3,4-dihydrobenzo[f][1,4]oxazepin-5(2H)-one], 130 nM; as for `COc1cc(CN2CCOc3c(cc(Cn4cnn(C)c4=N)cc3-c3ccc(F)cc3C)C2=O)cc(OC)c1` [Example 6, 4-(3,5-Dimethoxybenzyl)-9-(4-fluoro-2-methylphenyl)-7-((5-imino-1-methyl-1,5-dihydro-4H-1,2,4-triazol-4-yl)methyl)-3,4-dihydrobenzo[f][1,4]oxazepin-5(2H)-one], 86 nM.
In the case of `CCc1cc(C(=O)NCCN(C)C)c2nccc(N3CCOc4c(cc(Cn5ccnc5)cc4-c4cn(C)nc4C(F)(F)F)C3=O)c2c1` [Example 73, 4-(7-((1H-imidazol-1-yl)methyl)-9-(1-methyl-3-(trifluoromethyl)-1H-pyrazol-4-yl)-5-oxo-2,3-dihydrobenzo[f][1,4]oxazepin-4(5H)-yl)-N-(2-(dimethylamino)ethyl)-6-ethylquinoline-8-carboxamide] it was 255 nM; in that of `COc1ccnc([C@H](C)N2CCOc3c(cc(Cn4ccnc4C)cc3-c3cn(C)nc3C(F)(F)F)C2=O)c1` [Example 47, (S)-4-(1-(4-Methoxypyridin-2-yl)ethyl)-7-((2-methyl-1H-imidazol-1-yl)methyl)-9-(1-methyl-3-(trifluoromethyl)-1H-pyrazol-4-yl)-3,4-dihydrobenzo[f][1,4]oxazepin-5(2H)-one], 31 nM.
Take `COc1ccnc(Cn2cnc3c(-c4cn(C)nc4C(F)(F)F)cc(Cn4ccnc4C)cc3c2=O)c1` [Example 55, 3-((4-Methoxypyridin-2-yl)methyl)-6-((2-methyl-1H-imidazol-1-yl)methyl)-8-(1-methyl-3-(trifluoromethyl)-1H-pyrazol-4-yl)quinazolin-4(3H)-one]: the GI50 is 570 nM.
As for `COc1ccc2c(c1)C(N1CCOc3c(cc(Cn4ccnc4C)cc3-c3cn(C)nc3C(F)(F)F)C1=O)CCC2` (centres unmarked) [Example 57, 4-(7-Methoxy-1,2,3,4-tetrahydronaphthalen-1-yl)-7-((2-methyl-1H-imidazol-1-yl)methyl)-9-(1-methyl-3-(trifluoromethyl)-1H-pyrazol-4-yl)-3,4-dihydrobenzo[f][1,4]oxazepin-5(2H)-one], the figure is 29 nM.
In the case of `Cc1ccnc(CN2C[C@@H](C)Oc3c(cc(Cn4ccnc4C)cc3-c3cn(C)nc3C(F)(F)F)C2=O)c1` [Example 40, (R)-2-Methyl-7-((2-methyl-1H-imidazol-1-yl)methyl)-9-(1-methyl-3-(trifluoromethyl)-1H-pyrazol-4-yl)-4-((4-methylpyridin-2-yl)methyl)-3,4-dihydrobenzo[f][1,4]oxazepin-5(2H)-one] it was 529 nM.
As for `Cc1ccnc(CN2CCOc3c(cc(Cn4cnn(C)c4=N)cc3-c3cn(C)nc3C(F)(F)F)C2=O)c1` [Example 32, 7-((5-imino-1-methyl-1,5-dihydro-4H-1,2,4-triazol-4-yl)methyl)-9-(1-methyl-3-(trifluoromethyl)-1H-pyrazol-4-yl)-4-((4-methylpyridin-2-yl)methyl)-3,4-dihydrobenzo[f][1,4]oxazepin-5(2H)-one], the figure is 775 nM; as for `COc1ccnc(CN2CCOc3c(cc(Cn4ccn(C)c4=N)cc3-c3ccc(F)cc3C)C2=O)c1` [Example 13, 9-(4-Fluoro-2-methylphenyl)-7-((2-imino-3-methyl-2,3-dihydro-1H-imidazol-1-yl)methyl)-4-((4-methoxypyridin-2-yl)methyl)-3,4-dihydrobenzo[f][1,4]oxazepin-5(2H)-one], 12 nM.
On to `COc1cc(CN2CC(=O)Nc3c(cc(Cn4ccn(C)c4=N)cc3-c3ccc(F)cc3C)C2=O)cc(OC)c1` [Example 14, 4-(3,5-Dimethoxybenzyl)-9-(4-fluoro-2-methylphenyl)-7-((2-imino-3-methyl-2,3-dihydro-1H-imidazol-1-yl)methyl)-3,4-dihydro-1H-benzo[e][1,4]diazepine-2,5-dione], for which the GI50 turned out to be 167 nM.
In the case of `COc1cc(CN2CCOc3c(cc(Cn4ccn(C)c4=N)cc3-c3cn(C)nc3C(F)(F)F)C2=O)cc(OC)c1` [Example 16, 4-(3,5-Dimethoxybenzyl)-7-((2-imino-3-methyl-2,3-dihydro-1H-imidazol-1-yl)methyl)-9-(1-methyl-3-(trifluoromethyl)-1H-pyrazol-4-yl)-3,4-dihydrobenzo[f][1,4]oxazepin-5(2H)-one] it was 79 nM; in that of `CCc1nccn1Cc1cc2c(c(-c3cn(CC)nc3C(F)(F)F)c1)OCCN([C@H](c1cc(OC)ccn1)C1CC1)C2=O` [Example 61, (S)-4-(Cyclopropyl(4-methoxypyridin-2-yl)methyl)-7-((2-ethyl-1H-imidazol-1-yl)methyl)-9-(1-ethyl-3-(trifluoromethyl)-1H-pyrazol-4-yl)-3,4-dihydrobenzo[f][1,4]oxazepin-5(2H)-one], 158 nM; in that of `Cc1cc(C)nc(CN2CCOc3c(cc(Cn4ccnc4C)cc3-c3ccccc3C)C2=O)c1` [Example 45, 4-((4,6-Dimethylpyridin-2-yl)methyl)-7-((2-methyl-1H-imidazol-1-yl)methyl)-9-(o-tolyl)-3,4-dihydrobenzo[f][1,4]oxazepin-5(2H)-one], 157 nM.
Consider `Cc1cc(C)nc(CN2CCOc3c(cc(Cn4ccnc4C)cc3-c3ccc(F)cc3C)C2=O)c1` [Example 41, 4-((4,6-Dimethylpyridin-2-yl)methyl)-9-(4-fluoro-2-methylphenyl)-7-((2-methyl-1H-imidazol-1-yl)methyl)-3,4-dihydrobenzo[f][1,4]oxazepin-5(2H)-one], for which the GI50 came to 985 nM.
In the case of `Cc1cc(C)nc(CN2CCOc3c(cc(Cn4ccnc4C)cc3-c3cccnc3C(F)(F)F)C2=O)c1` [Example 42, 4-((4,6-Dimethylpyridin-2-yl)methyl)-7-((2-methyl-1H-imidazol-1-yl)methyl)-9-(2-(trifluoromethyl)pyridin-3-yl)-3,4-dihydrobenzo[f][1,4]oxazepin-5(2H)-one] it was 282 nM.
